From PubChem BioAssay (NCI)
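Where inhibition never reached the appropriate level, the endpoint shown equals the highest concentration tested. Otherwise, values were interpolated linearly from a five-concentration, 48-hour dose response in 96-well plates. TGI: total growth inhibition.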

Columns and labels:
Assay in all cases: growth of human tumour cells (NCI), 48 h
[1] = test system: HL-60(TB) leukemia
[2] = test system: MDA-MB-435
[3] = test system: NCI/ADR-RES ovarian
[4] = test system: SF-539 CNS
[5] = test system: SK-MEL-28 melanoma
[6] = test system: IGROV1 ovarian
[7] = test system: SF-268 CNS
[8] = test system: BT-549 breast
[9] = test system: RPMI-8226 leukemia
[10] = test system: EKVX NSCLC
[11] = test system: HOP-92 NSCLC

SMILES	TGI [1] [µM]	TGI [2] [µM]	TGI [3] [µM]	TGI [4] [µM]	TGI [5] [µM]	TGI [6] [µM]	TGI [7] [µM]	TGI [8] [µM]	TGI [9] [µM]	TGI [10] [µM]	TGI [11] [µM]
CNc1nc(C(N)=O)c(N)s1	> 100	> 100	> 100	> 100	> 100	> 100	> 100	> 100	> 100	> 100	> 100
BrCC[N+]12CC[N+](CCBr)(CC1)C2	> 100	> 100	> 100	> 100	> 100	> 100	> 100	> 100	> 100	> 100	> 100
CCN1CN(c2ccccc2)C2(CCN(CC(CC3OCCO3)c3ccc(F)cc3)CC2)C1=O (stereo not given)	49.3	38.2	> 92.7	25.5	40.5	> 53.8	38.2	53.2	60.2	> 100	10.3
CCO/C=N/C1=C(C#N)SC2=N/C(=C\c3ccccc3)C(=O)N21	> 83.2	> 100	> 100	> 100	> 100	> 100	> 100	> 100	> 100	> 100	> 100
C=C1C[C@H](O)[C@H](Br)C(C)(C)C12CCC(C)(Cl)C(Br)C2 (stereo not given in full)	13.4	11.7	20.7	42.2	19	18.8	20.8	18.5	3.76	1.61	8.76
O=C1CC(NCc2ccccc2)c2c(Cl)sc(Cl)c21 (stereo not given)	41.6	85.2	> 86.3	57.5	76.7	> 64.6	50.2	69.8	6.82	> 100	64.8
COc1ccc(-c2oc3c(OC)c(OC)cc(O)c3c(=O)c2OC)cc1	> 100	> 100	> 100	72.5	> 100	> 100	> 100	> 100	–	> 100	> 100
Cc1nc2sccn2c1/C=C1/C(=O)Nc2cccc(Cl)c21	> 100	39.3	> 100	> 100	> 100	> 100	> 100	> 100	> 100	> 100	> 100
O=c1cc(-c2cccnc2)[nH]c2cc3c(cc12)OCO3	31.9	4.6	40	17.7	> 100	> 28.1	> 100	> 100	> 100	–	> 100
CC(=O)Oc1ccc2c3c1O[C@H]1[C@H](O)CC[C@@]4(O)[C@@H](C2)N(C)CC[C@]314	> 100	> 100	> 100	> 100	> 100	> 100	> 100	> 100	> 100	> 100	> 100
O=c1oc2c(Cl)cc(Cl)cc2cc1C1=CSC2=NCCN12	> 100	> 100	> 100	> 100	> 100	> 100	–	74.4	> 100	> 100	> 100
CCOC(=O)NN(C(=O)OCC)c1c(C)cc(C)cc1C	> 100	> 100	> 100	> 100	> 100	> 100	> 100	> 100	> 100	> 100	–
CC(=O)OC(Cc1c(O)c2c(C)cccc2oc1=O)C(C)(C)O (stereo not given)	> 100	> 100	> 100	> 100	> 100	> 100	> 100	> 100	> 100	> 100	–
CCOC(=O)c1nc2ccc(C(F)(F)F)cc2nc1Oc1ccc(C(=O)OC)cc1	> 100	> 100	> 100	> 100	> 100	> 100	> 100	> 100	> 100	> 100	> 100
COC(=O)/C=C1/OC(c2ccc(OC)cc2)=C(Cl)C1=O	12.2	30.4	66.5	41	32.6	34.1	36.8	26.3	13.6	39.4	57.5
O=C(c1cc2c(c3ccccc13)NC1(CCCCC1)N=C2C(F)(F)F)C(F)(F)F	9.89	12.5	17	5.59	22.6	17.3	20	15.8	–	15.7	13.4
CN(C)Cc1cc(N=Nc2ccc(Cl)cc2)cc(CN(C)C)c1O	4.94	24.6	13.6	23.2	23.9	12	30.3	23.8	37	–	21.7
OC1CSc2nc3ccccc3n2C1 (stereo not given)	> 100	> 100	> 100	> 100	–	> 100	> 100	> 100	> 100	> 100	> 100
CSc1nc2c(c(=O)[nH]1)N=C(c1ccccc1)CC(c1ccccc1)N2 (stereo not given)	59.2	> 100	> 100	66.3	> 100	> 100	–	> 100	71	> 100	> 100
Cc1ccc2c(/C=C/c3ccc(N(C)C)cc3)ccc(C(C)C)cc1-2	88.3	> 100	> 100	–	> 100	> 100	> 100	> 100	> 100	> 100	> 100
